Measured values published in ChEMBL document CHEMBL1201862, “PubChem BioAssay data set” (2004).
Calls of active or inactive are those of the source.

Experiments:
[1] = T. cruzi growth inhibition in host cells, dose response, cell-based, plate reader, dry powder, set 2 (AID 652275); format: functional
[2] = HEK293T cytotoxicity, dose response, cytotoxicity control for miR-122 modulator project, cell-based, inhibitor set, cherry-pick, set 2 (AID 720697); format: functional
[3] = HEK293T cytotoxicity, dose response, cytotoxicity control for miR-122 modulator project, cell-based, activator set, cherry-pick (AID 720690); format: functional;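 note: HEK293T human cells scored for general mammalian cytotoxicity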
[4] = miR-122 activators in hepatoma reporter cells, dose response, cell-based, Huh7 psiCHECK-miR122, Renilla luciferase, cherry-picked (AID 651956); format: functional;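 note: huh7 hepatoma cells stably carrying a psiCHECK-2 miR-122 sensor plasmid; renilla luciferase signal reporting endogenous miR-122 activity after 48 h compound exposure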
[5] = Shn3 3'UTR reporter inhibitors, dose response, cell-based, Clone20 osteoblasts, firefly luciferase, cherry-picked (AID 624132); format: functional;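 note: firefly luciferase luminescence from reporter carrying the Shn3 3'UTR in osteoblasts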
[6] = inhibitors of control Renilla luciferase reporter, dose response, counter-screen for Shn3 3'UTR targeting project, Clone20-Shn3RL cells, dual-Glo, cherry-pick, set 2 (AID 720724); format: functional, cell-based; details: Dual-Go Shn3RL
[7] = reduction of endogenous Shn3 mRNA, dose response, qPCR, Clone20 cells, cherry-pick (AID 743415); format: functional, cell-based
[8] = cells; format: functional, cell-based
[9] = cells; format: functional, cell-based; remark: listed apart in the source
[10] = HepG2 cell cytotoxicity, dose response, cytotoxicity control for Shn3 inhibitor project, CellTiter-Glo, cherry-picked (AID 624134); format: functional, cell-based
[11] = control 3'UTR Renilla luciferase suppression, dose response, counter-screen for Shn3 inhibitor project, cell-based, Clone20-Shn3RL, cherry-picked (AID 624133); format: functional
[12] = reduction of Shn3 3'UTR firefly luciferase signal, dose response, Schnurri-3 inhibitor project, cell-based, Clone20 osteoblasts, cherry-pick, set 2 (AID 720490); format: functional;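 note: actives lower the luminescence signal as inhibitors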
[13] = target: Endoplasmic reticulum aminopeptidase 1 (Homo sapiens, UniProt Q9NZ08); assay: ERAP1 aminopeptidase inhibitors, dose response, biochemical, cherry-pick, set 2, plate reader (AID 743314)
[14] = P. falciparum Dd2 growth inhibitors, dose response, SYBR Green, dry powder samples (AID 1159566); format: functional, cell-based;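 note: potency for growth inhibition with lower SYBR green DNA signal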
[15] = NIH:OVCAR-3 ovarian cancer cell cytotoxicity, dose response, PAX8 inhibitor project, plate reader, dry powder samples (AID 743044); format: functional, cell-based
[16] = P. falciparum Dd2 growth inhibitors, dose response, SYBR Green, cherry-picked samples (AID 1159567); format: functional, cell-based
[17] = LGR2 antagonists, dose response, cell-based, HEK293, CRE-luciferase reporter, cherry pick, set 2 (AID 743343); format: functional;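 note: transfected cells were stimulated with diluted bursicon conditioned medium after compound addition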
[18] = target: Paired box protein Pax-8 (Homo sapiens, UniProt Q06710); assay: inhibitors of PAX8-driven TPO luciferase reporter, dose response, RMG-I cells, cherry-pick (AID 687027); format: functional, cell-based;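 note: luciferase reporter driven by Pax8 target thyroperoxidase promoter measured by SteadyGlo luminescence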
[19] = P. falciparum 3D7-ScDHODH growth inhibitors, dose response, SYBR Green, dry powder samples (AID 1159570); format: functional, cell-based;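 note: parasite growth measured after 72 hours of compound exposure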
[20] = HEK293 cell cytotoxicity, dose response, cytotoxicity control, plate reader, cherry-picked samples (AID 743446); format: functional, cell-based
[21] = HepG2 cell cytotoxicity, dose response, cytotoxicity control, plate reader, cherry-pick, antagonist series (AID 743416); format: functional, cell-based
[22] = cytotoxicity in OVCAR8 ovarian cancer cells, dose response, PAX8 project, cell-based, plate reader, dry powder samples (AID 743197); format: functional; details: OVCAR-8
[23] = P. falciparum ATP4 D1247Y mutant growth inhibitors, dose response, NITD609-resistant line, SYBR Green, dry powder (AID 1159571); format: functional, cell-based;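 note: parasites synchronized at ring stage by sorbitol before testing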
[24] = IGROV1 ovarian cancer cell cytotoxicity, dose response, PAX8 inhibitor project, plate reader, dry powder samples (AID 743043); format: functional, cell-based; details: IGROV-1
[25] = HepG2 cell cytotoxicity, dose response, cytotoxicity control, plate reader, dry powder samples (AID 1159569); format: functional, cell-based;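 note: inhibitor potency with signal falling toward the positive control level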
[26] = MC4R antagonists, dose response, counter-screen for LGR2 antagonist project, cell-based, plate reader, cherry pick (AID 743444); format: functional;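 note: transfected HEK 293 cells stimulated with alpha-MSH peptide; potency of inhibitors of the alpha-MSH evoked signal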
[27] = A2780 ovarian cancer cell cytotoxicity, dose response, cytotoxicity control, plate reader, dry powder samples (AID 743046); format: functional, cell-based
[28] = IOSE-T80 ovarian epithelial cell cytotoxicity, dose response, cytotoxicity control for PAX8 inhibitor project, plate reader, dry powder samples (AID 743045); format: functional, cell-based
[29] = A549 cell cytotoxicity, dose response, cytotoxicity control, plate reader, cherry-pick, antagonist series (AID 743412); format: functional, cell-based
[30] = target: Galanin receptor type 3 (Homo sapiens, UniProt O60755); assay: Fluorescence-based cell-based primary high throughput dose response assay to identify antagonists of the Galanin Receptor 3 (GalR3).; format: functional
[31] = cells; format: functional, cell-based; details: HEK-CNG
[32] = growth suppression of PTEN-null colon cells, dose response, cell-based, HCT116 PTEN knockout (AID 1047); format: functional;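 note: HCT116 colon tumor cells with PTEN knocked out; cells exposed to compound for 60 hours before readout; potency for loss of cell viability measured by luminescence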
[33] = target: T1, Ubiquitin-conjugating enzyme E2 N (Homo sapiens, UniProt P61088); format: functional;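 note: Dose-response confirmation in a TR-FRET assay detecting UBC13-driven polyubiquitin chain formation, inhibition measured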
T1 sequence (P61088 whole entry): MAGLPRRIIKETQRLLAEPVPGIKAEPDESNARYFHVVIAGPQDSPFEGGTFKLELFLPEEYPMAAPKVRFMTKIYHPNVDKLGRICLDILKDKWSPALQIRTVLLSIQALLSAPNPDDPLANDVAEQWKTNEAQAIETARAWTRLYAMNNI

[34] = growth suppression of beta-catenin-knockout colon cells, dose response, cell-based, HCT116, human colon tumor (AID 1045); format: functional;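 note: HCT116 colon tumor cells with beta catenin knocked out; cells exposed to compound for 60 hours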
[35] = HEK293T cell cytotoxicity, dose response, cytotoxicity control for HIV Vif inhibitor project, cherry-picks (AID 652208); format: functional, cell-based
[36] = Counterscreen for antagonists of the human trace amine associated receptor 1 (hTAAR1): Fluorescence-based cell-based high throughput dose response assay to identify nonselective Ga16 antagonists.; format: functional
[37] = Counterscreen for […] of the human trace amine associated receptor 1 (TAAR1): Fluorescence-based cell-based high throughput dose response assay to identify nonselective Ga16 agonists.; format: functional
[38] = target: T2, Trace amine-associated receptor 1 (Homo sapiens, UniProt Q96RJ0); assay: Counterscreen for agonists of the human trace amine associated receptor 1 (hTAAR1): Fluorescence-based cell-based high throughput dose response assay to identify hTAAR1 agonist that also desensitize TAAR1 receptor response.; format: functional
T2 sequence (Q96RJ0 whole entry): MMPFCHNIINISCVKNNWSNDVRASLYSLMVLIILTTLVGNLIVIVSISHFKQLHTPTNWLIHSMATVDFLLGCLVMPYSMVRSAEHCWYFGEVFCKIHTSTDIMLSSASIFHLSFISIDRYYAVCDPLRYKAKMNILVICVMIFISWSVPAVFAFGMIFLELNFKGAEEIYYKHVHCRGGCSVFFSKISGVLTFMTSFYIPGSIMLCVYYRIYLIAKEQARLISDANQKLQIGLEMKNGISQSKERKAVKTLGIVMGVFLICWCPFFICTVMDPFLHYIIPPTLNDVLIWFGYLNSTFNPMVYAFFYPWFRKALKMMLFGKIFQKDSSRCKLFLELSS

[39] = target: T2, Trace amine-associated receptor 1; assay: Fluorescence-based cell-based high throughput dose response assay to identify agonists of the human trace amine associated receptor 1 (TAAR1).; format: functional
[40] = target: Fructose-bisphosphate aldolase (Mycobacterium tuberculosis, UniProt P9WQA3); assay: Fluorescence-based biochemical high throughput dose response assay for inhibitors of the fructose-bisphosphate aldolase (FBA) of M. tuberculosis.; format: functional
Fructose-bisphosphate aldolase, sequence (P9WQA3 whole entry): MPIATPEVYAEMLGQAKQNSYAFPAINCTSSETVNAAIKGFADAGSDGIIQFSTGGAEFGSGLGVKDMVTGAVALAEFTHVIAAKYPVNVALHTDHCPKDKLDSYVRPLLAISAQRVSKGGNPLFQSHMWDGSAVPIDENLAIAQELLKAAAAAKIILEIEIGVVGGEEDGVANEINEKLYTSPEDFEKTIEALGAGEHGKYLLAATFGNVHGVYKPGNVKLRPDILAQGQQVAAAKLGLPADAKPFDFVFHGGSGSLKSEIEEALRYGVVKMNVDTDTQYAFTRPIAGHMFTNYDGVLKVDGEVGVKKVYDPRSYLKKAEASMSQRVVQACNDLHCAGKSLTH

Paired box protein Pax-8, sequence (Q06710 whole entry): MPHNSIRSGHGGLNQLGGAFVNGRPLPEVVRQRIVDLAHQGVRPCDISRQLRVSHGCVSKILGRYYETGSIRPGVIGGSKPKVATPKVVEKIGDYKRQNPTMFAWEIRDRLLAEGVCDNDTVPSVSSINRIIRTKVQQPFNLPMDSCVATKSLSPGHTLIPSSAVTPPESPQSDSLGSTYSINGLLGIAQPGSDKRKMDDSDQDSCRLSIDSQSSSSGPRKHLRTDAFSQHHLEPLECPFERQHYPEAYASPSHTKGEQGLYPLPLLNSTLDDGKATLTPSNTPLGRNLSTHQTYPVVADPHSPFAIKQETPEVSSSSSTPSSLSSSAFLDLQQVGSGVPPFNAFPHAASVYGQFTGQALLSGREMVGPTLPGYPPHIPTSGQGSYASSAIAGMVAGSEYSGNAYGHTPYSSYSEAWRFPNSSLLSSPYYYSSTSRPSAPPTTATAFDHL
Endoplasmic reticulum aminopeptidase 1, sequence (Q9NZ08 whole entry): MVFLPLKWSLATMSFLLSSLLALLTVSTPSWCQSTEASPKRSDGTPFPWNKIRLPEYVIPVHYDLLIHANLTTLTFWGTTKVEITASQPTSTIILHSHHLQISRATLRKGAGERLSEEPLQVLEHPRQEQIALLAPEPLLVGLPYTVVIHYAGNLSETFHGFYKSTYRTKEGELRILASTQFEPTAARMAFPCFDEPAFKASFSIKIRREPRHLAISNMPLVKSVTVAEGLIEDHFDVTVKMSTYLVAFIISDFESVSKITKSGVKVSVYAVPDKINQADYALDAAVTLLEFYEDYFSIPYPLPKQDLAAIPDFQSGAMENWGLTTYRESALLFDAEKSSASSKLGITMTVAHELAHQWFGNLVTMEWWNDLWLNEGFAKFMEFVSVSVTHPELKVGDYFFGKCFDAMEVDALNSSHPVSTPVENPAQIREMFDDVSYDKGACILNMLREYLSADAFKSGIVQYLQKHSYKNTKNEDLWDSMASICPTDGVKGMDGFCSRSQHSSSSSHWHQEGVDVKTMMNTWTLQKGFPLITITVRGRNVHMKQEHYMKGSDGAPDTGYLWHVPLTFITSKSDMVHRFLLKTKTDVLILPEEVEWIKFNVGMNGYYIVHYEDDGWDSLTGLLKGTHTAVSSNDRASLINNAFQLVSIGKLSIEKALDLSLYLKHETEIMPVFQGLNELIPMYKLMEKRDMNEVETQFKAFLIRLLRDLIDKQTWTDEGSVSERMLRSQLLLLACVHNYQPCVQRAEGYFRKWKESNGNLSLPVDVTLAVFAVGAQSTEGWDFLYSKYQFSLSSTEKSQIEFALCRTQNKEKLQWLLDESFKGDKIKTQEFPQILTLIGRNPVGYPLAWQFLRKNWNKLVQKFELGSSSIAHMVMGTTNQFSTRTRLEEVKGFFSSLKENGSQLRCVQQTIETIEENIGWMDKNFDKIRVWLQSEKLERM
Galanin receptor type 3, sequence (O60755 whole entry): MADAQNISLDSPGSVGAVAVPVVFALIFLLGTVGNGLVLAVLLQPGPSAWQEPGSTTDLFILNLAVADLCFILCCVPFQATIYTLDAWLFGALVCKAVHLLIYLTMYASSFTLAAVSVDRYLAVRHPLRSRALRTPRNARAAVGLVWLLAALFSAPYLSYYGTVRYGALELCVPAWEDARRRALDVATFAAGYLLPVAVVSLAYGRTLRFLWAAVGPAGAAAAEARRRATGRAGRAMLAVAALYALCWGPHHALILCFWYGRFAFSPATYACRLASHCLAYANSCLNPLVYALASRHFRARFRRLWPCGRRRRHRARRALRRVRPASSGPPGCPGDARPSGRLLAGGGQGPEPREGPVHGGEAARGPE

Structure (SMILES): O=C(Cn1ccnc1[N+](=O)[O-])NCc1ccccc1 [BENZNIDAZOLE]
- AC50 [1]: 0.153 µM (active)

Structure (SMILES): C[C@@H]1CN([C@@H](C)CO)S(=O)(=O)c2ccc(C#Cc3ccccc3F)cc2O[C@@H]1CN(C)C(=O)Cc1ccncc1
- AC50 [2]: 5.41 µM (active)
- AC50 [3]: 45 µM (active)
- AC50 [4]: 6.5 µM (active)

Structure (SMILES): COc1cc(CN2CCc3ccccc3C2)ccc1O
- AC50 [5]: 0.912 µM (active)
- AC50 [6]: 2.93 µM (active)
- AC50 [7]: 3.71 µM (active)
- EC50 [8]: > 29.9 µM (inactive)
- IC50 [9]: > 29.9 µM (inactive)
- AC50 [10]: 24.9 µM (active)
- AC50 [11]: 5.64 µM (active)
- AC50 [12]: 2.65 µM (active)

Structure (SMILES): C[C@H](CO)N1C[C@H](C)[C@H](CN(C)C(=O)Nc2ccccc2)Oc2ncccc2C1=O
- AC50 [13]: 12.3 µM (active)

Structure (SMILES): N#Cc1ccc(-c2ccc([C@@H]3[C@@H]4CN(C(=O)C5CC5)C[C@H]3N4)cc2)cc1
- AC50 [14]: 0.376 µM (active)
- AC50 [15]: 7.05 µM (active)
- AC50 [16]: < 0.3 µM (active)
- AC50 [17]: 1.22 µM (active)
- AC50 [18]: 1.16 µM (active)
- AC50 [19]: 0.328 µM (active)
- AC50 [20]: 1.7 µM (active)
- AC50 [21]: 1.97 µM (active)
- AC50 [22]: 19.9 µM (active)
- AC50 [23]: 0.449 µM (active)
- AC50 [24]: 4.73 µM (active)
- AC50 [25]: 1.41 µM (active)
- AC50 [26]: 0.684 µM (active)
- AC50 [27]: 7.18 µM (active)
- AC50 [28]: 40.5 µM (active)
- AC50 [29]: 0.821 µM (active)

Structure (SMILES): COc1cccc(CN(C)C(=O)CNC(=O)c2ccc(-c3ccccc3)cc2)c1OC
- IC50 [30]: > 1.11 µM (active)
- EC50 [31]: > 29.9 µM (inactive)

Structure (SMILES): COc1cc2c3nnc(-c4ccc(F)cc4)c-3cn(Cc3ccc(F)cc3)c2cc1OC
- EC50 [32]: 6.2 µM (active)
- IC50 [33]: > 20 µM (inactive)
- EC50 [34]: 7.33 µM (active)
- AC50 [35]: 26.3 µM (active)

Structure (SMILES): CCCCC(=O)Nc1ccc(C(=O)Nc2ccc(S(=O)(=O)N3CCCC3)cc2)cc1
- IC50 [36]: > 29.9 µM (inactive)
- EC50 [37]: > 29.9 µM (inactive)

Structure (SMILES): O=C(Nc1cccc2ccccc12)N1CCc2ccccc2C1
- EC50 [8]: > 29.9 µM (inactive)
- IC50 [9]: > 29.9 µM (inactive)
- IC50 [38]: 9.86 µM (active)
- EC50 [39]: 0.266 µM (active)
- IC50 [40]: > 9.99 µM (inactive)
